Measurements published in US10392391B2 (Vertex Pharmaceuticals Incorporated, priority 2012, dated 2019).
Where two headings read alike, the source gives them in different places.

Target: ATR kinase (full-length ATR) (Homo sapiens (Human), UniProt Q13535)
Experiment: ATR inhibition assay (radioactive-phosphate incorporation)
Assay type: biochemical
Description: Compounds were screened for their ability to inhibit ATR kinase using a radioactive-phosphate incorporation assay. Assays were carried out in a mixture of 50 mM Tris/HCl (pH 7.5), 10 mM MgCl2 and 1 mM DTT. Final substrate concentrations were 10 μM [γ-33P]ATP (3mCi 33P ATP/mmol ATP, Perkin Elmer) and 800 μM target peptide ([…]) (SEQ ID NO:1).
Assays were carried out at 25° C. in the presence of 5 nM full-length ATR. An assay stock buffer solution was prepared containing all of the reagents listed above, with the exception of ATP and the test compound of interest. 13.5 μL of the stock solution was placed in a 96 well plate followed by addition of 2 μL of DMSO stock containing serial dilutions of the test compound (typically starting from a final concentration of 15 μM with 3-fold serial dilutions) in duplicate (final DMSO concentration 7%). The plate was pre-incubated for 10 minutes at 25° C. and the reaction initiated by addition of 15 μL [γ-33P]ATP (final concentration 10 μM).
The reaction was stopped after […] by the addition of 30 μL 0.1M phosphoric acid containing 2 mM ATP. A multiscreen phosphocellulose filter 96-well plate (Millipore, Cat no. MAPHN0B50) was pretreated with 100 μL 0.2M phosphoric acid prior to the addition of […] of the stopped assay mixture. The plate was washed with 5×200 μL 0.2M phosphoric acid. After drying, 100 μL Optiphase ‘SuperMix’ liquid scintillation cocktail (Perkin Elmer) was added to the well prior to scintillation counting (1450 Microbeta Liquid Scintillation Counter, Wallac).
After removing mean background values for all of the data points, Ki(app) data were calculated from non-linear regression analysis of the initial rate data using the Prism software package (GraphPad Prism version 3.0cx for Macintosh, GraphPad Software, San Diego Calif., USA).

[1] = Ki(app), 5 nM full-length ATR, 10 μM ATP, 25° C.

Sequence of ATR kinase (full-length ATR) (Q13535 whole entry): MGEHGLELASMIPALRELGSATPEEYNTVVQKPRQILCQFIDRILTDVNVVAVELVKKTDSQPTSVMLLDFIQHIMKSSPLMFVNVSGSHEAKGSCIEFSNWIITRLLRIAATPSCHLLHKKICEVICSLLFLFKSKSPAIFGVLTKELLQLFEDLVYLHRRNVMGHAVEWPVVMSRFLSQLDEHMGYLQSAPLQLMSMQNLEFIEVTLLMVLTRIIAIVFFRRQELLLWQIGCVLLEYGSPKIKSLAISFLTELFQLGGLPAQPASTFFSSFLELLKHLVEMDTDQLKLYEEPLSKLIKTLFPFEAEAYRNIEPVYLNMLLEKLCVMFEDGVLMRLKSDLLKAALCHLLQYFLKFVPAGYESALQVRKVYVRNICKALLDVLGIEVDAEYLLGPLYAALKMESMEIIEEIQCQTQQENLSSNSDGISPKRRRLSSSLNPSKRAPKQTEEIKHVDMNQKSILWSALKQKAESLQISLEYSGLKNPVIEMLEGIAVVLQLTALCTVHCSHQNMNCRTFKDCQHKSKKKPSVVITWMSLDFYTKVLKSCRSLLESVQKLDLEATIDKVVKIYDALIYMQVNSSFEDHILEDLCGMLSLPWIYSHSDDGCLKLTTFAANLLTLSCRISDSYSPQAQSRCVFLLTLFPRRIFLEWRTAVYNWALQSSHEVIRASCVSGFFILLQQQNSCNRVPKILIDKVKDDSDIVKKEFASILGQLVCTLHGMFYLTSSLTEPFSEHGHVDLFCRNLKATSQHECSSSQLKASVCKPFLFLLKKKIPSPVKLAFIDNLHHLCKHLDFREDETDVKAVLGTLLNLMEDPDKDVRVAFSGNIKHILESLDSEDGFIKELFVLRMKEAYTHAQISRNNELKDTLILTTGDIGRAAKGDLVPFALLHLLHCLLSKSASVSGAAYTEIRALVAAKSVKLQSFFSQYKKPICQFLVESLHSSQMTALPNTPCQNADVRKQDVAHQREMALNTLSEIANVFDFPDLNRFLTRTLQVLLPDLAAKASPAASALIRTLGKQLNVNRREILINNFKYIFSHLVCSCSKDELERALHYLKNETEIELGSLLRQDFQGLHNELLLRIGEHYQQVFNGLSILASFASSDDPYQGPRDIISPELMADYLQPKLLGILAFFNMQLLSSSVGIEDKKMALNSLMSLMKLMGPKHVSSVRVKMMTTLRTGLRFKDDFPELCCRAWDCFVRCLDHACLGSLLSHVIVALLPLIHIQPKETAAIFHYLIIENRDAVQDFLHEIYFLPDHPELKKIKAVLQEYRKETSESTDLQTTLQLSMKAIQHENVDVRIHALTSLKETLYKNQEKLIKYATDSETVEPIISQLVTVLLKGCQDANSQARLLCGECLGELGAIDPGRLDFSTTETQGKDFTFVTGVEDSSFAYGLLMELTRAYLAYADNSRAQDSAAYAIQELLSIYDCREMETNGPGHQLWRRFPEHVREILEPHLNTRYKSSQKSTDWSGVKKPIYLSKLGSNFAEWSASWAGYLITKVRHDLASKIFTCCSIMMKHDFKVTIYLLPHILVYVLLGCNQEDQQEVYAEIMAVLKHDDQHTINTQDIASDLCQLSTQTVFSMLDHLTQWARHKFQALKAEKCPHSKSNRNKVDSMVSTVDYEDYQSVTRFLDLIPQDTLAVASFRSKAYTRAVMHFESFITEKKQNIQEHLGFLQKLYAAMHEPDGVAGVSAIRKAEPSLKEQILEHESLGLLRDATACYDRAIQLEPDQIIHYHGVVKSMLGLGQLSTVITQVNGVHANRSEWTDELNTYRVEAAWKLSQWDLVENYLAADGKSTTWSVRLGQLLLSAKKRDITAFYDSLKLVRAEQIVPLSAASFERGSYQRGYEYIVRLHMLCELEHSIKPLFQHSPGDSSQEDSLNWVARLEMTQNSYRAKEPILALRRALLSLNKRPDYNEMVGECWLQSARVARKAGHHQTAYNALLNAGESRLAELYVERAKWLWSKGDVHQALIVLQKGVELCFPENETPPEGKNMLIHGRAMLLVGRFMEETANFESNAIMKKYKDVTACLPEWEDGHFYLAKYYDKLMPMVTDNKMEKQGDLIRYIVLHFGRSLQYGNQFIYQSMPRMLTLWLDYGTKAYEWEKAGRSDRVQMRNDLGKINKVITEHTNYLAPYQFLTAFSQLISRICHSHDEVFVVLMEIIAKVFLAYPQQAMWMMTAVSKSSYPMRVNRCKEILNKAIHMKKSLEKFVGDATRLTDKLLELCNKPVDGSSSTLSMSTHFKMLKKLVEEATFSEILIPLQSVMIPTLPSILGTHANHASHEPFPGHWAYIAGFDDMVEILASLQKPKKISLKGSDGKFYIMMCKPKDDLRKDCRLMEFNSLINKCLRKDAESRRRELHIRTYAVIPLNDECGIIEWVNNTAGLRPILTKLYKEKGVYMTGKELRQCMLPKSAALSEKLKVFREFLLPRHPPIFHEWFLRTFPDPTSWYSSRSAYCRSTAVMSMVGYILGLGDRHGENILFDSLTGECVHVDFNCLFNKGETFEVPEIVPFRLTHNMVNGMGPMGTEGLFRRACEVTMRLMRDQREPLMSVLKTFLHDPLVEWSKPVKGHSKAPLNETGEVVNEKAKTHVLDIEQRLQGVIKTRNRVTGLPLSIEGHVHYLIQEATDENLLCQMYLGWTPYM

**Q.** With `CN(C)CCOc1ccncc1NC(=O)c1c(N)nn2cc(Cl)cnc12` [I-O-48, 2-amino-6-chloro-N-(4-(2-(dimethylamino)ethoxy)pyridin-3-yl)pyrazolo[1,5-a]pyrimidine-3-carboxamide] as the compound, how does the Ki [1] read?
**A.** Its Ki is 0.01 to 1 µM.

**Q.** Which Ki [1] does the source give for `COc1ccncc1NC(=O)c1c(N)nn2cc(Cl)cnc12` [I-O-57, 2-amino-6-chloro-N-(4-methoxypyridin-3-yl)pyrazolo[1,5-a]pyrimidine-3-carboxamide] here?
**A.** The Ki was 0.01 to 1 µM.

**Q.** Which Ki does the source give for `Cn1ccc2cncc(NC(=O)c3c(N)nn4cc(F)cnc34)c21` [I-N-259, 2-amino-6-fluoro-N-(1-methyl-1H-pyrrolo[3,2-c]pyridin-7-yl)pyrazolo[1,5-a]pyrimidine-3-carboxamide] here?
**A.** The Ki was 1 to 5 µM.

**Q.** How did the Ki [1] turn out when `Cc1nc(C(F)(F)F)cn1-c1ccncc1NC(=O)c1c(N)nn2cc(F)cnc12` [I-N-30, 2-amino-6-fluoro-N-(4-(2-methyl-4-(trifluoromethyl)-1H-imidazol-1-yl)pyridin-3-yl)pyrazolo[1,5-a]pyrimidine-3-carboxamide] was run?
**A.** Its Ki is 0.01 to 1 µM.

**Q.** For `Nc1nn2cc(F)cnc2c1C(=O)Nc1cnccc1N1CCC(N2CCCC2=O)CC1` [I-N-230, 2-amino-6-fluoro-N-(4-(4-(2-oxopyrrolidin-1-yl)piperidin-1-yl)pyridin-3-yl)pyrazolo[1,5-a]pyrimidine-3-carboxamide], which Ki [1] is on record?
**A.** Its Ki is 0.01 to 1 µM.

**Q.** Which Ki [1] does the source give for `CN1CCN(C(=O)C2CCN(c3c(F)cncc3NC(=O)c3c(N)nn4cc(F)cnc34)CC2)CC1(C)C` [I-G-15, 2-amino-6-fluoro-N-(5-fluoro-4-(4-(3,3,4-trimethylpiperazine-1-carbonyl)piperidin-1-yl)pyridin-3-yl)pyrazolo[1,5-a]pyrimidine-3-carboxamide] here?
**A.** Its Ki is 0.01 to 1 µM.

**Q.** How did the Ki [1] turn out when `CN1CCN(C(=O)N2CCN(c3c(F)cncc3NC(=O)c3c(N)nn4cc(F)cnc34)CC2)CC1` [I-N-140, 2-amino-6-fluoro-N-(5-fluoro-4-(4-(4-methylpiperazine-1-carbonyl)piperazin-1-yl)pyridin-3-yl)pyrazolo[1,5-a]pyrimidine-3-carboxamide] was run?
**A.** The Ki was 0.01 to 1 µM.

**Q.** Which Ki [1] does the source give for `Nc1nn2cc(F)cnc2c1C(=O)Nc1cncc(F)c1N1CCS(=O)(=O)CC1` [I-N-250, 2-amino-N-(4-(1,1-dioxidothiomorpholino)-5-fluoropyridin-3-yl)-6-fluoropyrazolo[1,5-a]pyrimidine-3-carboxamide] here?
**A.** Its Ki is 0.01 to 1 µM.

**Q.** `CN1CCN(c2ccncc2NC(=O)c2c(N)nn3cc(Cl)cnc23)CC1CO` (stereo not drawn) [I-N-63, 2-amino-6-chloro-N-(4-(3-(hydroxymethyl)-4-methylpiperazin-1-yl)pyridin-3-yl)pyrazolo[1,5-a]pyrimidine-3-carboxamide] was tested. Which Ki [1] did it give?
**A.** Its Ki is 0.01 to 1 µM.

**Q.** With `Nc1nn2cc(F)cnc2c1C(=O)Nc1cnccc1N1CCC2(CCNC2)CC1` [I-N-255, N-(4-(2,8-diazaspiro[4.5]decan-8-yl)pyridin-3-yl)-2-amino-6-fluoropyrazolo[1,5-a]pyrimidine-3-carboxamide] as the compound, how does the Ki [1] read?
**A.** The Ki was 0.01 to 1 µM.

**Q.** Which Ki [1] does the source give for `Nc1nn2cc(F)cnc2c1C(=O)Nc1cncc(F)c1N1CCC(S(=O)(=O)N2CCN3CCC2CC3)CC1` [I-N-273, N-(4-(4-(1,4-diazabicyclo[3.2.2]nonan-4-ylsulfonyl)piperidin-1-yl)-5-fluoropyridin-3-yl)-2-amino-6-fluoropyrazolo[1,5-a]pyrimidine-3-carboxamide] here?
**A.** Its Ki is 0.01 to 1 µM.

**Q.** Which Ki [1] does the source give for `CN(C)CCN(C)C(=O)C1CCN(c2c(F)cncc2NC(=O)c2c(N)nn3cc(F)cnc23)CC1` [I-G-31, 2-amino-N-(4-(4-((2-(dimethylamino)ethyl)(methyl)carbamoyl)piperidin-1-yl)-5-fluoropyridin-3-yl)-6-fluoropyrazolo[1,5-a]pyrimidine-3-carboxamide] here?
**A.** Its Ki is 0.01 to 1 µM.

**Q.** For `CN1CCOC[C@@H]1c1ccc(-c2ccncc2NC(=O)c2c(N)nn3cc(F)cnc23)cc1` [I-C-66, (S)-2-amino-6-fluoro-N-(4-(4-(4-methylmorpholin-3-yl)phenyl)pyridin-3-yl)pyrazolo[1,5-a]pyrimidine-3-carboxamide], which Ki [1] is on record?
**A.** The Ki was 0.01 to 1 µM.

**Q.** With `Nc1nn2cc(F)cnc2c1C(=O)Nc1cncc(F)c1N1CCN2C(=O)CCCC2C1` (stereo not drawn) [I-N-277, 2-amino-6-fluoro-N-(5-fluoro-4-(6-oxohexahydro-1H-pyrido[1,2-a]pyrazin-2(6H)-yl)pyridin-3-yl)pyrazolo[1,5-a]pyrimidine-3-carboxamide] as the compound, how does the Ki [1] read?
**A.** The Ki was 0.01 to 1 µM.

**Q.** Which Ki [1] does the source give for `CN1CCN(C2CCN(c3ccncc3NC(=O)c3c(N)nn4cc(Cl)cnc34)CC2)CC1` [I-N-97, 2-amino-6-chloro-N-(4-(4-(4-methylpiperazin-1-yl)piperidin-1-yl)pyridin-3-yl)pyrazolo[1,5-a]pyrimidine-3-carboxamide] here?
**A.** The Ki was 0.01 to 1 µM.

**Q.** With `CN1CCC(C(=O)N2CCC(c3ccncc3NC(=O)c3c(N)nn4cc(F)cnc34)CC2)CC1` [I-C-16, 2-amino-6-fluoro-N-(4-(1-(1-methylpiperidine-4-carbonyl)piperidin-4-yl)pyridin-3-yl)pyrazolo[1,5-a]pyrimidine-3-carboxamide] as the compound, how does the Ki [1] read?
**A.** Its Ki is 0.01 to 1 µM.

**Q.** Which Ki [1] does the source give for `Nc1nn2cc(F)cnc2c1C(=O)Nc1cncc(F)c1N1CCN(C(=O)C2CN3CCC2CC3)CC1` (stereo not drawn) [I-N-130, 2-amino-6-fluoro-N-(5-fluoro-4-(4-(quinuclidine-3-carbonyl)piperazin-1-yl)pyridin-3-yl)pyrazolo[1,5-a]pyrimidine-3-carboxamide] here?
**A.** Its Ki is 0.01 to 1 µM.

**Q.** Which Ki [1] does the source give for `Nc1nn2cc(Cl)cnc2c1C(=O)Nc1cnccc1O[C@H]1CCNC1` [I-O-76, (S)-2-amino-6-chloro-N-(4-(pyrrolidin-3-yloxy)pyridin-3-yl)pyrazolo[1,5-a]pyrimidine-3-carboxamide] here?
**A.** Its Ki is 0.01 to 1 µM.

**Q.** For `CCN1CCC(C(=O)N2CCN(c3c(F)cncc3NC(=O)c3c(N)nn4cc(F)cnc34)CC2)C1` (stereo not drawn) [I-N-207, 2-amino-N-(4-(4-(1-ethylpyrrolidine-3-carbonyl)piperazin-1-yl)-5-fluoropyridin-3-yl)-6-fluoropyrazolo[1,5-a]pyrimidine-3-carboxamide], which Ki [1] is on record?
**A.** Its Ki is 0.01 to 1 µM.

**Q.** Which Ki [1] does the source give for `Cn1ccnc1-c1ccncc1NC(=O)c1c(N)nn2cc(F)cnc12` [I-C-55, 2-amino-6-fluoro-N-(4-(1-methyl-1H-imidazol-2-yl)pyridin-3-yl)pyrazolo[1,5-a]pyrimidine-3-carboxamide] here?
**A.** Its Ki is 0.01 to 1 µM.

**Q.** For `CN1CCN(c2c(F)cncc2NC(=O)c2c(N)nn3cc(CC#N)cnc23)CC1` [I-N-80, 2-amino-6-(cyanomethyl)-N-(5-fluoro-4-(4-methylpiperazin-1-yl)pyridin-3-yl)pyrazolo[1,5-a]pyrimidine-3-carboxamide], which Ki [1] is on record?
**A.** Its Ki is 0.01 to 1 µM.

**Q.** For `CN(C)[C@H]1CCN(c2ccncc2NC(=O)c2c(N)nn3cc(Cl)cnc23)C[C@@H]1O` [I-N-35, 2-amino-6-chloro-N-(4-((3S,4S)-4-(dimethylamino)-3-hydroxypiperidin-1-yl)pyridin-3-yl)pyrazolo[1,5-a]pyrimidine-3-carboxamide], which Ki is on record?
**A.** Its Ki is 1 to 5 µM.

**Q.** For `CC1CN(C)CCN1c1ccncc1NC(=O)c1c(N)nn2cc(Cl)cnc12` (stereo not drawn) [I-N-72, 2-amino-6-chloro-N-(4-(2,4-dimethylpiperazin-1-yl)pyridin-3-yl)pyrazolo[1,5-a]pyrimidine-3-carboxamide], which Ki [1] is on record?
**A.** The Ki was 0.01 to 1 µM.

**Q.** For `Nc1nn2cc(F)cnc2c1C(=O)Nc1cnccc1OC1CCC(C(=O)O)CC1` (stereo not drawn) [I-O-8, 4-((3-(2-amino-6-fluoropyrazolo[1,5-a]pyrimidine-3-carboxamido)pyridin-4-yl)oxy)cyclohexanecarboxylic acid], which Ki [1] is on record?
**A.** The Ki was 0.01 to 1 µM.

**Q.** How did the Ki [1] turn out when `CN1CCC(Oc2ccncc2NC(=O)c2c(N)nn3cc(Cl)cnc23)CC1` [I-O-64, 2-amino-6-chloro-N-(4-((1-methylpiperidin-4-yl)oxy)pyridin-3-yl)pyrazolo[1,5-a]pyrimidine-3-carboxamide] was run?
**A.** Its Ki is 0.01 to 1 µM.

**Q.** How did the Ki [1] turn out when `Nc1nn2cc(F)cnc2c1C(=O)Nc1cnccc1-c1ccc(C(=O)N2CCN(C3COC3)CC2)cc1F` [I-C-51, 2-amino-6-fluoro-N-(4-(2-fluoro-4-(4-(oxetan-3-yl)piperazine-1-carbonyl)phenyl)pyridin-3-yl)pyrazolo[1,5-a]pyrimidine-3-carboxamide] was run?
**A.** The Ki was 0.01 to 1 µM.

**Q.** Which Ki [1] does the source give for `C[N+]1([O-])CCc2c(cncc2NC(=O)c2c(N)nn3cc(F)cnc23)C1` (stereo not drawn) [I-C-9, 5-(2-amino-6-fluoropyrazolo[1,5-a]pyrimidine-3-carboxamido)-2-methyl-1,2,3,4-tetrahydro-2,7-naphthyridine 2-oxide] here?
**A.** The Ki was 0.01 to 1 µM.

**Q.** For `CC(=O)N1CCC(c2ccncc2NC(=O)c2c(N)nn3cc(F)cnc23)CC1` [I-C-69, N-(4-(1-acetylpiperidin-4-yl)pyridin-3-yl)-2-amino-6-fluoropyrazolo[1,5-a]pyrimidine-3-carboxamide], which Ki [1] is on record?
**A.** Its Ki is 0.01 to 1 µM.

**Q.** How did the Ki [1] turn out when `CN(C)CCOCCOc1ccncc1NC(=O)c1c(N)nn2cc(Cl)cnc12` [I-O-47, 2-amino-6-chloro-N-(4-(2-(2-(dimethylamino)ethoxy)ethoxy)pyridin-3-yl)pyrazolo[1,5-a]pyrimidine-3-carboxamide] was run?
**A.** The Ki was 0.01 to 1 µM.

**Q.** `CN1CCN(C(=O)c2cnc(-c3ccncc3NC(=O)c3c(N)nn4cc(F)cnc34)c(Cl)c2)CC1` [I-C-46, 2-amino-N-(3-chloro-5-(4-methylpiperazine-1-carbonyl)-[2,4′-bipyridin]-3′-yl)-6-fluoropyrazolo[1,5-a]pyrimidine-3-carboxamide] was tested. Which Ki [1] did it give?
**A.** The Ki was 0.01 to 1 µM.
